# Results published in publication PMC7044277 (Nature Communications, 2020).
# Values joined by “and” are separate entries in the source; they are usually repeats but may differ in a detail not shown here. Equal values may be shown once.
# Key:
# DRD3 wild-type = DRD3 wild-type (Homo sapiens, UniProt P35462); assay: Radioligand competition binding, [3H]-N-methylspiperone; conditions: DRD3 wild-type; read-out: pKi ± SEM (converted)
# [1] = molecular target: T1, DRD4 (D4.4 variant) wild-type (Homo sapiens, UniProt P21917); assay: as above; conditions: DRD4; [3H]-methylspiperone (0.8-1.0 nM); read-out: Ki
# T1 sequence (P21917 1-419): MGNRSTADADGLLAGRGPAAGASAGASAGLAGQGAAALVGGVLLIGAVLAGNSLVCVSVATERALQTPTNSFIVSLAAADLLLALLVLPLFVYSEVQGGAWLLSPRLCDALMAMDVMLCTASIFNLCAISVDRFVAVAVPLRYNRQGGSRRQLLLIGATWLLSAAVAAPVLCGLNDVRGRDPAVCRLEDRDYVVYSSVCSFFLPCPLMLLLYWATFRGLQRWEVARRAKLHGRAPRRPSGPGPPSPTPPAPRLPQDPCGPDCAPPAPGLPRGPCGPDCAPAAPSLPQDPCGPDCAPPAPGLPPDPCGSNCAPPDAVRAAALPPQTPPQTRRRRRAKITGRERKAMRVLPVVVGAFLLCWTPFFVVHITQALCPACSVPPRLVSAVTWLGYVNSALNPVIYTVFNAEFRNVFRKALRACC
# DRD2 (D2 long receptor) = DRD2 (D2 long receptor) (Homo sapiens, UniProt P14416); assay: Gαi/o-mediated cAMP inhibition (GloSensor split-luciferase cAMP reporter), HEK293T; assay type: cell-based; conditions: DRD2; antagonist, Gαi/o-mediated cAMP inhibition; read-out: EC50 ± SEM (antagonist);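 also: compounds applied 15 min at room temperature, then luciferin plus 400 nM isoproterenol to raise cAMP through endogenous β2-adrenergic receptors, luminescence read 15 min later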
# Chain of DRD2 (D2 long receptor) (P14416 whole entry): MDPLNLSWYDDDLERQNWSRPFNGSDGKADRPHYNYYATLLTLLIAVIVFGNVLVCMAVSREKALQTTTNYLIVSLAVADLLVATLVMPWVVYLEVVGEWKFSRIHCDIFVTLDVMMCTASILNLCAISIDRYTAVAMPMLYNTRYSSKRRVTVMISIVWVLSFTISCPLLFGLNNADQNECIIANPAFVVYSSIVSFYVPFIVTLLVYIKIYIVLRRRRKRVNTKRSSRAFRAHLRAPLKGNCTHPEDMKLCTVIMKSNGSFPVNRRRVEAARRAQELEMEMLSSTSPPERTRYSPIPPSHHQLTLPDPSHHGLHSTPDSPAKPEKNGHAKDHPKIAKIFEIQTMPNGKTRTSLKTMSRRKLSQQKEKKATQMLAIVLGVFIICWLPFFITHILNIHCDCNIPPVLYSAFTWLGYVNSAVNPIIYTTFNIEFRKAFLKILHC
# [2] = molecular target: DRD2 (D2 long receptor) wild-type (Homo sapiens, UniProt P14416); assay: Radioligand competition binding, [3H]-N-methylspiperone, HEK293T membranes; conditions: DRD2; [3H]-methylspiperone (0.8-1.0 nM); read-out: Ki
# Chain of DRD2 (D2 long receptor) wild-type (P14416 whole entry): as above
# DRD5 = DRD5 (Homo sapiens, UniProt P21918); assay: β-arrestin2 recruitment (Tango); assay type: cell-based; conditions: Fig_S10e, single replicates
# Chain of DRD5 (P21918 whole entry): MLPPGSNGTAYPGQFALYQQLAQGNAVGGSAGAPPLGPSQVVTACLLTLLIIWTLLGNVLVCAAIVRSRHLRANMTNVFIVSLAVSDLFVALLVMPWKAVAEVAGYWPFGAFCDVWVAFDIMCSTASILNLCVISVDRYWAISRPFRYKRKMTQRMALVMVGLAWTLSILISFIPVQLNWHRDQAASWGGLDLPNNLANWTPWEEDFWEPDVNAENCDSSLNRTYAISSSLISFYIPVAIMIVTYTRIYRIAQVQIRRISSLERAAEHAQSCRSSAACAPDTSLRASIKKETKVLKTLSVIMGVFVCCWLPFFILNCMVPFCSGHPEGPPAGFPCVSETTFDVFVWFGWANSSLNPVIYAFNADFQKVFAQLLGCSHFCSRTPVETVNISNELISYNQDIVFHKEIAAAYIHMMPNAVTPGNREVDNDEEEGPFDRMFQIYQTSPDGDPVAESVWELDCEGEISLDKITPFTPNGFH
# DRD1 = DRD1 (Homo sapiens, UniProt P21728); assay: β-arrestin2 recruitment (Tango); assay type: cell-based; conditions: agonist mode
# Chain of DRD1 (P21728 whole entry): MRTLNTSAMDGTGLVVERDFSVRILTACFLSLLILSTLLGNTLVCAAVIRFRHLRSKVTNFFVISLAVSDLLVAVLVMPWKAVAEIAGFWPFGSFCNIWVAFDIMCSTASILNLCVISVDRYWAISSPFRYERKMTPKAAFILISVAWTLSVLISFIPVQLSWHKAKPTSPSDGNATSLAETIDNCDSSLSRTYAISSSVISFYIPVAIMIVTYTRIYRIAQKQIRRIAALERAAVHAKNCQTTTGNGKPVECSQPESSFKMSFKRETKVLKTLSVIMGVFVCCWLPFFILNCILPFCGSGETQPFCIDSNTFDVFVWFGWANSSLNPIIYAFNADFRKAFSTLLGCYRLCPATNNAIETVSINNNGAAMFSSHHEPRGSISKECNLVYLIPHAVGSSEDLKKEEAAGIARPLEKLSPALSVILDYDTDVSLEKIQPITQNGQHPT
# 5HT6 = molecular target: T2, 5HT6 (Homo sapiens, UniProt P50406); assay: β-arrestin2 recruitment (Tango); assay type: cell-based; conditions: Fig_S10p, agonist mode
# T2 construct: expressed in transfected cells; host or cells: HTLA cells expressing TEV-fused β-arrestin2
# T2 sequence (P50406 whole entry, the tested form may be a part): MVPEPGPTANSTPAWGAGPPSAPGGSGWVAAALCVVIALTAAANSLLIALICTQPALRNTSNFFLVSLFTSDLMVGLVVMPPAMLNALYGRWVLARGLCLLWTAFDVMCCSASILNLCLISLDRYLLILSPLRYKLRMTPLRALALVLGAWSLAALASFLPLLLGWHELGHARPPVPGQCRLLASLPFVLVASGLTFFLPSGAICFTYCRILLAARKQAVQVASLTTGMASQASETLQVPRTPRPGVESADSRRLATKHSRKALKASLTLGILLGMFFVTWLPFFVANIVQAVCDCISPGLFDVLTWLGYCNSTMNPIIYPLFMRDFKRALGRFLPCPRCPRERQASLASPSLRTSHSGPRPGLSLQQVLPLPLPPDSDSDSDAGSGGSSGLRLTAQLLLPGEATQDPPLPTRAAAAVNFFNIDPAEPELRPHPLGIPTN
# 5HT7A = molecular target: T3, 5HT7A (Homo sapiens, UniProt P34969); assay: β-arrestin2 recruitment (Tango); assay type: cell-based; conditions: Fig_S10q, agonist mode
# T3 construct: expressed in transfected cells; host or cells: HTLA cells expressing TEV-fused β-arrestin2
# T3 sequence (P34969 1-445 isoform P34969-2): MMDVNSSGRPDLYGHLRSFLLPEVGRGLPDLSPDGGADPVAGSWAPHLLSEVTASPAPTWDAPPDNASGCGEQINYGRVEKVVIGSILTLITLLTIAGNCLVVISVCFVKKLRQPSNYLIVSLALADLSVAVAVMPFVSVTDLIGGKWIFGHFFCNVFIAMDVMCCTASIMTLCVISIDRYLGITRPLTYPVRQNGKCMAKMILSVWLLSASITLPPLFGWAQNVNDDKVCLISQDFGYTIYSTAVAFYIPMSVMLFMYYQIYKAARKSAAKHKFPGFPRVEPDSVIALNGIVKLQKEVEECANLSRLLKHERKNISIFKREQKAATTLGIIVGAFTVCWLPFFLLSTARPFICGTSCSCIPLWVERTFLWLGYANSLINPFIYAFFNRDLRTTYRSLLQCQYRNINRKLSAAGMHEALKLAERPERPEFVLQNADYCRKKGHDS
# Chain of DRD3 wild-type (P35462 whole entry): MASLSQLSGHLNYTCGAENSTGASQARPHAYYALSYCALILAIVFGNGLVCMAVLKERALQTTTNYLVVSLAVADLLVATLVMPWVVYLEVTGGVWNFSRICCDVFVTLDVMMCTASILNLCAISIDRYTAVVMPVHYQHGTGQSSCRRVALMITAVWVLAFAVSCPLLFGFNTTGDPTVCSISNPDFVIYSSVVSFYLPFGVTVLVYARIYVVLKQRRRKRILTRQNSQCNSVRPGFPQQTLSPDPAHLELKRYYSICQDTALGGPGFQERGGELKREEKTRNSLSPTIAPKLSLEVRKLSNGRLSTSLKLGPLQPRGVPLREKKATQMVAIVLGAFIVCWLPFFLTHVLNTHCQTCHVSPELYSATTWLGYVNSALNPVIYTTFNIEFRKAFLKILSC
compound,measurement,setting,value
CCCCN(C)C(C)C(=O)Nc1cc([N+](=O)[O-])ccc1OC (stereo not drawn) [O9LE9],Ki,DRD3 wild-type,0.214 µM
same,Ki,[1],> 10 µM
same,EC50,DRD2 (D2 long receptor),3.55 ± 0.295 µM
same,Ki,[2],3.8 µM
Oc1ccc2c(c1O)Oc1cccc3c1C2CNC3 (stereo not drawn) [dinoxyline],"β-arrestin2 recruitment response, agonist mode (normalized)",DRD5; Log[Drug] -6.52,50.9959 and 44.5818 and 81.7753 and 73.11 and 53.8362
same,"β-arrestin2 recruitment response, agonist mode (normalized)",DRD5; Log[Drug] -7,44.4286 and 33.2805 and 57.3924 and 47.0403 and 55.7358 and 61.3062 and 41.0525 and 43.6565
same,"β-arrestin2 recruitment response, agonist mode (normalized)",DRD5; Log[Drug] -7.52,33.6662 and 25.4134 and 56.8006 and 39.9881 and 23.8046 and 44.1458 and 17.6483 and 11.4811
same,"β-arrestin2 recruitment response, agonist mode (normalized)",DRD5; Log[Drug] -8,7.481 and 4.412 and 28.4866 and 15.182 and 15.3449 and 6.879 and 1.575 and 2.947
same,"β-arrestin2 recruitment response, agonist mode (normalized)",DRD5; Log[Drug] -8.52,7.423 and 8.3056 and 10.7658 and 9.092 and 10.1938 and 2.126 and 2.041 and 8.64
same,"β-arrestin2 recruitment response, agonist mode (normalized)",DRD5; Log[Drug] -9,0.5231 and -1.384 and 1.379 and 3.9644 and 2.988 and 7.407 and -1.292 and -1.934 and 0.3332
same,"β-arrestin2 recruitment response, agonist mode (normalized)",DRD5; Log[Drug] -9.52,0.9986 and 0.1427 and 0.1268 and 2.609 and 1.523 and 1.227 and -2.233 and -1.075 and -0.4405
same,"β-arrestin2 recruitment response, agonist mode (normalized)",DRD5; Log[Drug] -10,-2.61 and -1.543 and -0.2906 and 1.406 and 1.213 and 1.593 and -1.565 and -1.034 and 0.3624
same,"β-arrestin2 recruitment response, agonist mode (normalized)",DRD5; Log[Drug] -10.52,3.973 and -1.363 and 0.9616 and 3.254 and 1.908 and 2.385 and -0.2872 and 0.4781 and -0.9479
same,"β-arrestin2 recruitment response, agonist mode (normalized)",DRD5; Log[Drug] -11,-1.141 and 0.9563 and 6.05 and 0.4043 and -0.1448 and 1 and -1.291 and -1.255 and 0.5855
same,"β-arrestin2 recruitment response, agonist mode (normalized)",DRD5; Log[Drug] -11.52,0.7872 and 1.828 and -1.791 and 1.074 and 2.305 and 1.525 and -1.001 and -2.087 and -0.1993
same,"β-arrestin2 recruitment response, agonist mode (normalized)",DRD5; Log[Drug] -12,-1.5322 and -0.4861 and -0.05283 and -0.02136 and -0.01028 and 2.843 and -2.166 and -0.9521 and 0.6036
same,"Fig_S10d concentration-response source data, compound alone (replicates)",DRD1; Log[Drug] -6.52,10.0073
same,"Fig_S10d concentration-response source data, compound alone (replicates)",DRD1; Log[Drug] -7,4.307 and 1.205 and 1.227 and 4.484 and 2.979 and 2.557 and 2.04 and -0.1301 and 1.092
same,"Fig_S10d concentration-response source data, compound alone (replicates)",DRD1; Log[Drug] -7.52,1.579 and 3.303 and 0.5491 and 3.089 and 1.082 and 1.378 and -0.7612 and -0.8315 and -0.809
same,"Fig_S10d concentration-response source data, compound alone (replicates)",DRD1; Log[Drug] -8,1.257 and 1.231 and 1.566 and 0.913 and 0.3538 and 0.1991 and -0.676 and -1.057 and 0.2893
same,"Fig_S10d concentration-response source data, compound alone (replicates)",DRD1; Log[Drug] -8.52,0.2231 and 2.08 and 8.446 and 0.2359 and 0.07888 and 0.01718 and -0.4841 and -1.204 and -0.2743
same,"Fig_S10d concentration-response source data, compound alone (replicates)",DRD1; Log[Drug] -9,0.9179 and 0.03861 and 0.7078 and 0.082 and -0.04373 and 0.0164 and -1.424 and -1.237 and -0.4972
same,"Fig_S10d concentration-response source data, compound alone (replicates)",DRD1; Log[Drug] -9.52,0.9179 and 1.428 and 0.9008 and 0.3038 and -0.1367 and -0.264 and -0.706 and -1.205 and -0.04775
same,"Fig_S10d concentration-response source data, compound alone (replicates)",DRD1; Log[Drug] -10,-0.2788 and -0.1244 and 1.737 and -0.3538 and -0.2647 and 0.1437 and -1.4279 and -0.8642 and -0.7996
same,"Fig_S10d concentration-response source data, compound alone (replicates)",DRD1; Log[Drug] -10.52,-0.2788 and 0.2273 and 1.767 and 0.02109 and 0.9895 and -0.1132 and 0.1507 and -0.4242 and -0.1601
same,"Fig_S10d concentration-response source data, compound alone (replicates)",DRD1; Log[Drug] -11,0.5834 and 0.2231 and 0.5491 and -0.5092 and -0.2671 and 0.4842 and -1.071 and -0.647 and 0.1395
same,"Fig_S10d concentration-response source data, compound alone (replicates)",DRD1; Log[Drug] -11.52,-0.1115 and 1.072 and 4.68 and 0.05545 and 0.239 and 0.3608 and 3.618 and -0.7331 and -0.985
same,"Fig_S10d concentration-response source data, compound alone (replicates)",DRD1; Log[Drug] -12,-0.2702 and -0.1115 and 0.3903 and -0.474 and -0.4764 and -0.3218 and 3.0206 and -0.9897 and -0.8633
CC[C@@H](CO)NC(=O)[C@@H]1C=C2c3cccc4[nH]cc(c34)C[C@H]2N(C)C1 [methylergonovine],"β-arrestin2 recruitment response, replicate points of concentration-response curve",5HT6; Log[Drug] -7.52,58.3654 and 42.8218 and 40.7735 and 42.4938 and 47.6018 and 32.15
same,"β-arrestin2 recruitment response, replicate points of concentration-response curve",5HT6; Log[Drug] -8,38.2178 and 17.1349 and 29.2946 and 27.8088 and 40.0294 and 64.9029 and 31.7107 and 61.5077 and 39.0249 and 30.4136
same,"β-arrestin2 recruitment response, replicate points of concentration-response curve",5HT6; Log[Drug] -8.52,30.1013 and 10.6993 and 18.1498 and 24.4245 and 28.031 and 15.5168 and 0.8374 and 22.4349 and 11.5027 and 21.7874 and 10.2907 and 27.3285
same,"β-arrestin2 recruitment response, replicate points of concentration-response curve",5HT6; Log[Drug] -9,20.3729 and 3.9604 and 2.141 and 7.952 and 0.7859 and 8.081 and -4.077 and -4.555 and -0.4693 and 35.6884 and 0.3477 and 9.366
same,"β-arrestin2 recruitment response, replicate points of concentration-response curve",5HT6; Log[Drug] -9.52,14.1022 and -2.488 and 4.171 and 24.8948 and 4.829 and 2.461 and 0.773 and -7.38 and -5.613 and 10.7938 and 2.907 and -1.524
same,"β-arrestin2 recruitment response, replicate points of concentration-response curve",5HT6; Log[Drug] -10,15.029 and -5.149 and -2.667 and -0.08663 and 7.1866 and 6.531 and -8.448 and -13.3063 and 14.3186 and 3.129 and -2.7225 and -5.682
same,"β-arrestin2 recruitment response, replicate points of concentration-response curve",5HT6; Log[Drug] -10.52,3.317 and 8.465 and -0.4579 and 0.09901 and 5.631 and 26.1232 and -3.267 and -10.7113 and 5.834 and 27.1732 and 9.063 and 0.5697
same,"β-arrestin2 recruitment response, replicate points of concentration-response curve",5HT6; Log[Drug] -11,5.777 and -4.208 and -3.1745 and 6.856 and 4.8832 and -1.2628 and -4.113 and -7.095 and -5.0704 and 3.773 and -2.7003 and -4.128
same,"β-arrestin2 recruitment response, replicate points of concentration-response curve",5HT6; Log[Drug] -11.52,-0.7317 and 4.554 and -0.9344 and -1.6151 and 0.5528 and 0.3631 and 17.5761 and 19.5362 and 55.6731 and -3.662 and -4.713 and -3.3
same,"β-arrestin2 recruitment response, replicate points of concentration-response curve",5HT7A; Log[Drug] -8.52,57.2072 and 62.1985 and 0.2034 and 43.345 and 17.0227 and 39.6469 and 24.6535 and -5.393 and 3.158
same,"β-arrestin2 recruitment response, replicate points of concentration-response curve",5HT7A; Log[Drug] -9,28.3493 and 32.0982 and 22.9584 and 37.3511 and 39.7632 and 14.7559 and 9.616 and 19.0912 and 1.923
same,"β-arrestin2 recruitment response, replicate points of concentration-response curve",5HT7A; Log[Drug] -9.52,-6.008 and 0.109 and 1.017 and 1.4676 and 14.0366 and 7.578 and 5.289 and -11.615 and 5.562
same,"β-arrestin2 recruitment response, replicate points of concentration-response curve",5HT7A; Log[Drug] -10,-3.669 and 16.1145 and 7.694 and 15.3008 and -0.2833 and 45.4083 and 32.224 and 8.8715 and 2.743
same,"β-arrestin2 recruitment response, replicate points of concentration-response curve",5HT7A; Log[Drug] -10.52,10.5565 and 33.0718 and 2.739 and 13.5571 and -3.967 and -24.3897 and -1.32 and -17.1773 and 11.1342
same,"β-arrestin2 recruitment response, replicate points of concentration-response curve",5HT7A; Log[Drug] -11,-4.984 and -18.2941 and -15.3444 and 8.733 and -19.8489 and 29.4754 and -10.9833 and -5.732 and 20.4393
same,"β-arrestin2 recruitment response, replicate points of concentration-response curve",5HT7A; Log[Drug] -11.52,-6.553 and -20.7643 and -12.3583 and 13.7605 and -14.4653 and -10.5493 and -19.7417 and -12.1995 and -5.987
same,"β-arrestin2 recruitment response, replicate points of concentration-response curve",5HT7A; Log[Drug] -12,42.2988 and -7.374 and -17.7056 and -12.5618 and -4.708 and 17.4441 and -2.395 and 25.3135 and 14.3302
